In US11078228B2, “Ectonucleotidase inhibitors and methods of use thereof” (Calithera Biosciences, Inc., priority 2018, dated 2021):

Molecular target: recombinant CD73 (Homo sapiens (Human), UniProt P21589)
Assay: Assay 2: Inhibition of the CD73 enzyme in vitro (0.05 nM CD73, 1 hour 37° C., Malachite Green)
Format: biochemical
Settings: 0.05 nM CD73, 50 μM AMP, 1 hour at 37° C.
Procedure, shortened: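 Soluble recombinant CD73 reactions ran 1 hour at 37° C. Malachite Green was then added, and absorbance at 630 nm was read after 5 min at room temperature. Inorganic phosphate was quantified from a phosphate standard curve.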

Sequence of recombinant CD73 (P21589 27-547): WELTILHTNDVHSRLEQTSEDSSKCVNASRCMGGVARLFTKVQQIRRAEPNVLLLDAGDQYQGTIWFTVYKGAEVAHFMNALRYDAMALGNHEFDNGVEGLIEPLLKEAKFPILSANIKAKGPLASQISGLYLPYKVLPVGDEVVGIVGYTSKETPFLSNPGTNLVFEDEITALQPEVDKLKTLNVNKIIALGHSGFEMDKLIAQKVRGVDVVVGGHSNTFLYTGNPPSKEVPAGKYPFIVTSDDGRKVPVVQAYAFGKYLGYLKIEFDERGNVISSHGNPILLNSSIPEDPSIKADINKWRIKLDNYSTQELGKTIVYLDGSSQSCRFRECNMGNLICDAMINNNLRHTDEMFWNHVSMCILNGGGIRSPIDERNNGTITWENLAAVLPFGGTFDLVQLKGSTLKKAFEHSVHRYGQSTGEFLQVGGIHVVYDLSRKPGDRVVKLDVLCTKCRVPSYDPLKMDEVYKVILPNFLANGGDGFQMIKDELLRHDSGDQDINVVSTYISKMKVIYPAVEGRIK

IC50 [nM] | SMILES
1 | C#C[C@@]1(O)[C@@H](COC(Cc2ccccc2)(C(=O)O)C(=O)O)O[C@@H](n2cnc3c(NCc4cccc(Cl)c4)nc(Cl)nc32)[C@@H]1O [Example 86, 2-benzyl-2-(((2R,3S,4R,5R)-5-(2-chloro-6-((3-chlorobenzyl)amino)-9H-purin-9-yl)-3-ethynyl-3,4-dihydroxytetrahydrofuran-2-yl)methoxy)malonic acid]
> 200 | CC[C@@]1(O)[C@@H](COC(Cc2ccccc2)(C(=O)O)C(=O)O)O[C@@H](n2cnc3c(N)nc(Cl)nc32)[C@@H]1O [Example 56, 2-(((2R,3S,4R,5R)-5-(6-amino-2-chloro-9H-purin-9-yl)-3-ethyl-3,4-dihydroxytetrahydrofuran-2-yl)methoxy)-2-benzylmalonic acid]
13 | C#C[C@@]1(O)[C@@H](COC(Cc2cncs2)(C(=O)O)C(=O)O)O[C@@H](n2cnc3c(N)nc(Cl)nc32)[C@@H]1O [Example 143, 2-(((2R,3S,4R,5R)-5-(6-amino-2-chloro-9H-purin-9-yl)-3-ethynyl-3,4-dihydroxytetrahydrofuran-2-yl)methoxy)-2-(thiazol-5-ylmethyl)malonic acid]
1710 | C#C[C@@]1(O)[C@@H](COC(Cc2ccccc2)(C(=O)O)C(=O)OCC)O[C@@H](n2cnc3c(N)nc(C(N)=O)nc32)[C@@H]1O (stereo partly drawn) [Example 121, 2-(((2R,3S,4R,5R)-5-(6-amino-2-carbamoyl-9H-purin-9-yl)-3-ethynyl-3,4-dihydroxytetrahydrofuran-2-yl)methoxy)-2-benzyl-3-ethoxy-3-oxopropanoic acid]
0.11 | C#C[C@@]1(O)[C@@H](COC(Cc2ccc(N3CCCN(C)C3=O)cc2)(C(=O)O)C(=O)O)O[C@@H](n2cnc3c(N)nc(Cl)nc32)[C@@H]1O [Example 149, 2-(((2R,3S,4R,5R)-5-(6-amino-2-chloro-9H-purin-9-yl)-3-ethynyl-3,4-dihydroxytetrahydrofuran-2-yl)methoxy)-2-(4-(3-methyl-2-oxotetrahydropyrimidin-1 (2H)-yl)benzyl)malonic acid]
3 | C#C[C@@]1(O)[C@@H](COC(Cc2ccccc2)(C(=O)O)C(=O)O)O[C@@H](n2cnc3c(N[C@@H]4CCc5ccccc54)nc(Cl)nc32)[C@@H]1O [Example 69, 2-benzyl-2-(((2R,3S,4R,5R)-5-(2-chloro-6-(((R)-2,3-dihydro-1H-inden-1-yl)amino)-9H-purin-9-yl)-3-ethynyl-3,4-dihydroxytetrahydrofuran-2-yl)methoxy)-malonic acid]
0.42 | C#C[C@@]1(O)[C@@H](COC(Cc2ccc(-c3cccn(C)c3=O)cc2)(C(=O)O)C(=O)O)O[C@@H](n2cnc3c(N)nc(Cl)nc32)[C@@H]1O [Example 162, 2-(((2R,3S,4R,5R)-5-(6-amino-2-chloro-9H-purin-9-yl)-3-ethynyl-3,4-dihydroxytetrahydrofuran-2-yl)methoxy)-2-(4-(1-methyl-2-oxo-1,2-dihydropyridin-3-yl)benzyl)malonic acid]
24 | C#C[C@@]1(O)[C@@H](COC(CC)(C(=O)O)C(=O)O)O[C@@H](n2cnc3c(N)nc(Cl)nc32)[C@@H]1O [Example 16, 2-(((2R,3S,4R,5R)-5-(6-amino-2-chloro-9H-purin-9-yl)-3-ethynyl-3,4-dihydroxytetrahydrofuran-2-yl)methoxy)-2-ethylmalonic acid]
112 | C#C[C@@]1(O)[C@@H](CO[C@@](Cc2ccccc2)(C(=O)O)c2cscn2)O[C@@H](n2cnc3c(NCC4CC4)nc(Cl)nc32)[C@@H]1O (single isomer, unassigned) [Example 173]
145 | C#C[C@@]1(O)[C@@H](CO[C@H](Cc2ccc(N3CCCNC3=O)cc2)C(=O)O)O[C@@H](n2cnc3c(N)nc(Cl)nc32)[C@@H]1O (single isomer, unassigned) [Example 166]
0.73 | C#C[C@@]1(O)[C@@H](COC(Cc2ccc(-c3cccnc3N)cc2)(C(=O)O)C(=O)O)O[C@@H](n2cnc3c(N)nc(Cl)nc32)[C@@H]1O [Example 197, 2-(((2R,3S,4R, 5R)-5-(6-amino-2-chloro-9H-purin-9-yl)-3-ethynyl-3,4-dihydroxytetrahydrofuran-2-yl)methoxy)-2-(4-(2-aminopyridin-3-yl)benzyl)malonic acid]
7 | C#C[C@@]1(O)[C@@H](COC(Cc2ccc(N3CCCNC3=O)cc2)(C(=O)O)C(=O)O)O[C@@H](n2cc(C)c(=O)[nH]c2=O)[C@@H]1O [Example 133, 2-(((2R,3S,4R,5R)-3-ethynyl-3,4-dihydroxy-5-(5-methyl-2,4-dioxo-3,4-dihydropyrimidin-1 (2H)-yl)tetrahydrofuran-2-yl)methoxy)-2-(4-(2-oxotetrahydropyrimidin-1 (2H)-yl)benzyl)malonic acid]
261 | C#C[C@@]1(O)[C@@H](CO[C@](Cc2ccc(N3CCCNC3=O)cc2)(C(=O)O)C(=O)OCC)O[C@@H](n2cnc3c(N)nc(Cl)nc32)[C@@H]1O (single isomer, unassigned) [Example 164]
162 | C#C[C@@]1(O)[C@@H](COC(Cc2ccsc2)(C(=O)O)c2cscn2)O[C@@H](n2cnc3c(NC(C)C)nc(Cl)nc32)[C@@H]1O (stereo partly drawn) [Example 169, 2-(((2R,3S,4R,5R)-5-(2-chloro-6-(isopropylamino)-9H-purin-9-yl)-3-ethynyl-3,4-dihydroxytetrahydrofuran-2-yl)methoxy)-2-(thiazol-4-yl)-3-(thiophen-3-yl)propanoic acid]
139 | C#C[C@@]1(O)[C@@H](CO[C@@H](Cc2ccc(N3CCCNC3=O)cc2)C(=O)O)O[C@@H](n2cnc3c(N)nc(Cl)nc32)[C@@H]1O (single isomer, unassigned) [Example 167]
2 | C#C[C@@]1(O)[C@@H](COC(Cc2ccccc2)(C(=O)O)C(=O)O)O[C@@H](n2cnc3c(NCc4cccc(F)c4)nc(Cl)nc32)[C@@H]1O [Example 85, 2-benzyl-2-(((2R,3S,4R,5R)-5-(2-chloro-6-((3-fluorobenzyl)amino)-9H-purin-9-yl)-3-ethynyl-3,4-dihydroxytetrahydrofuran-2-yl)methoxy)malonic acid]
0.23 | C#C[C@@]1(O)[C@@H](COC(Cc2ccc(N3CCCNC3=O)cc2)(C(=O)O)C(=O)O)O[C@@H](n2cnc3c(NC)nc(Cl)nc32)[C@@H]1O [Example 141, 2-(((2R,3S,4R,5R)-5-(2-chloro-6-(methylamino)-9H-purin-9-yl)-3-ethynyl-3,4-dihydroxytetrahydrofuran-2-yl)methoxy)-2-(4-(2-oxotetrahydropyrimidin-1 (2H)-yl)benzyl)malonic acid]
1360 | C#C[C@@]1(O)[C@@H](COC(Cc2nc3ccccc3s2)(C(=O)O)C(=O)O)O[C@@H](n2cnc3c(NCc4ccc(F)cc4)nc(Cl)nc32)[C@@H]1O [Example 112, 2-(benzo[d]thiazol-2-ylmethyl)-2-(((2R,3S,4R,5R)-5-(2-chloro-6-((4-fluorobenzyl)amino)-9H-purin-9-yl)-3-ethynyl-3,4-dihydroxytetrahydrofuran-2-yl)methoxy)malonic acid]
5 | C#C[C@@]1(O)[C@@H](COC(Cc2ccccc2)(C(=O)O)C(=O)O)O[C@@H](n2cnc3c(NCC(C)(C)O)nc(Cl)nc32)[C@@H]1O [Example 94, 2-benzyl-2-(((2R,3S,4R,5R)-5-(2-chloro-6-((2-hydroxy-2-methylpropyl)amino)-9H-purin-9-yl)-3-ethynyl-3,4-dihydroxytetrahydrofuran-2-yl)methoxy)malonic acid]
